One sequence from patent US12049483B2, “Selective and noncovalent inhibitors of oncogenic RAS mutants” (New York University, priority 2020, dated 2024) can be followed below.

“Also recorded” adds a separate entry of the source.

The subject of assay [1] is ERK activation (pERK). Briefly: ERK activation in dox-inducible monobody-expressing cell lines. The format is cell-based. The method, then:
Cell signaling assay and quantification of immunoblots. Cells were lysed in RIPA buffer (50 mM Tris-Cl pH 8, 150 mM NaCl, 5 mM EDTA pH8, 0.1% SDS, 1% NP40) supplemented with protease inhibitors (Roche; 5892991001) and phosphatase inhibitors (54 mM β-glycerophosphate, 10 mM NaF, 1 mM sodium vanadate) for 15 minutes on ice, and centrifuged at 15,000 g for 15 minutes. The supernatant was collected and measured for total protein amount using BCA assay (Thermo Scientific; 23227). Lysate (7-20 μg per well) was loaded onto a pre-cast SDS gel (BioRad; 456-1096) followed by electrophoresis. The proteins were then transferred from the gel to a low fluorescence background PVDF membrane (Millipore; IPFL00010) or regular PVDF membrane (Millipore; ISEQ00010) depending on whether fluorescence or chemiluminescence detection was performed. Phospho-ERK was detected using a rabbit anti-pERK antibody (Cell Signaling; 9101S) and total ERK was detected using a rabbit anti-ERK antibody (Cell Signaling; 9102S). Monobody expression was detected using mouse anti-Flag antibody (Sigma; F3165) or anti-HA tag antibody (BioLegend; 901516). Loading control was detected with primary antibody against tubulin-alpha (Thermo Scientific, 62204) or against cytochrome oxidase (COX IV) (Li-Cor, 926-42214). The total RAS level was detected using a pan-RAS antibody (SCBT, sc-166691). The KRAS level was determined using a KRAS-specific antibody (Sigma, WH0003845M1). For fluorescence detection of immunoblots, the membranes were imaged with a Licor Odyssey Clx imager (Li-Cor Bioscience) using IRDye anti-Rabbit 800CW and anti-Mouse 680LT (Li-Cor Bioscience, 926-32211 and 926-68020, respectively) as secondary antibodies. […] Band intensities of western blot were analyzed with Image Studio Lite version 5.2 (Li-Cor Bioscience). To quantify protein abundance in the degradation experiment, the intensities of pERK, RAS, KRAS, and Flag/HA tag bands were first normalized against the loading control of the perspective blot, which were either tubulin-α, COX IV or total ERK, followed by subsequent normalization to the zero time point. […]

In assay [2] the test system is KRAS mutant and control cell lines. Briefly: Cell proliferation assay of dox-inducible monobody-expressing cell lines. The format is cell-based. The conditions noted are these: KRAS(G12C) (H358 and H23) and KRAS(G12V) (PATU8902 and H441) cell lines. As for the experimental part:
Cell proliferation assay. […] Cells were then cultured in the presence of 1 μg/mL doxycycline for the entire duration of experiment (7-8 days) and subcultured into a new 12 well or 24 well plate every 2 days. […] The mixed culture was sampled periodically and the ratio between monobody expressing cells (mVenus and GFP positive) and non-expressing cells was determined using flow cytometry analysis (FIG. 11).

The target of assay [3] is T1, HRAS(WT) (Homo sapiens, UniProt P01112).
T1 construct: made in house; host or cells: E. coli BL21(DE3) with pBirA
T1 sequence (P01112 whole entry): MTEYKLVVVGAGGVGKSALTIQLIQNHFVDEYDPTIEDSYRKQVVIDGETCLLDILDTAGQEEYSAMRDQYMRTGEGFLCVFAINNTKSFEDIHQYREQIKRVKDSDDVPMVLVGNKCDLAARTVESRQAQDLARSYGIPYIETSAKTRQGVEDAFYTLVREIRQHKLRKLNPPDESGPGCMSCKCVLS
Briefly: Yeast display binding titration, HRAS(WT). As to conditions: GTPγS and GDP bound states. The method, then:
Nucleotide exchange of RAS. Purified RAS proteins used in binding experiment and crystallization were prepared by diluting stock protein (typically containing 20-250 μM RAS) 25 times with 20 mM Tris-Cl buffer pH 7.5 containing 5 mM EDTA, 0.1 mM DTT and 1 mM final concentration of a nucleotide (GDP or GTPγS). Samples were incubated at 30° C. for 30 minutes. MgCl2 was then added to the sample at a final concentration of 20 mM and the solution was further incubated on ice for at least 5 minutes prior to use.
Monobody development. General procedures for the development of monobodies against purified protein targets have been described previously. After four rounds of phage display library selection using biotinylated KRAS(G12C) at concentrations of 100 nM, 100 nM, 50 nM and 50 nM, the genes encoding monobodies from the enriched phage pool were transferred to a yeast display vector, which was used to construct yeast-display libraries. The yeast display libraries were sorted using a Bio-Rad S3e fluorescence-activated cell sorter or a […] II cell sorter (BD Biosciences). […] Single clones were then screened for selective binding to RAS mutants. The expression of monobodies on the surface of yeast cells were detected using mouse anti-VS and anti-mouse IgG-FITC conjugate. Target binding was detected with neutravidin Dylight650. Yeast cells were analyzed using an iQue flow cytometer (Sartorius). […]

As for “VSSVPTKLEVVAATPTSLLISWDAPAVTVFFYVITYGETGHGVGAFQAFKVPGSKSTATISGLKPGVDYTITVYARGYSKQGPYKPSPISINYRT [12VC1]”, the “ERK activation in H358 cells” value in assay [1] (H358, after 24 and 48 hours, dox-induced expression or ARS1620 treatment) is on record as “effectively inhibited”. Besides, in assay [1] (KRAS(G12C) (H358 and H23) and KRAS(G12V) (PATU8902 and H441) cell lines, dox-induced expression), the ERK activation entry is listed as “potently inhibited”. Also, the proliferation result in assay [2] is listed as “potently inhibited”. Further, the binding entry in assay [3] is “no binding; also recorded: did not detectably bind”.
